The assay has as its target T1, recombinant human SAE enzyme (Homo sapiens, UniProt Q9UBT2).
T1 sequence (Q9UBT2 1-640): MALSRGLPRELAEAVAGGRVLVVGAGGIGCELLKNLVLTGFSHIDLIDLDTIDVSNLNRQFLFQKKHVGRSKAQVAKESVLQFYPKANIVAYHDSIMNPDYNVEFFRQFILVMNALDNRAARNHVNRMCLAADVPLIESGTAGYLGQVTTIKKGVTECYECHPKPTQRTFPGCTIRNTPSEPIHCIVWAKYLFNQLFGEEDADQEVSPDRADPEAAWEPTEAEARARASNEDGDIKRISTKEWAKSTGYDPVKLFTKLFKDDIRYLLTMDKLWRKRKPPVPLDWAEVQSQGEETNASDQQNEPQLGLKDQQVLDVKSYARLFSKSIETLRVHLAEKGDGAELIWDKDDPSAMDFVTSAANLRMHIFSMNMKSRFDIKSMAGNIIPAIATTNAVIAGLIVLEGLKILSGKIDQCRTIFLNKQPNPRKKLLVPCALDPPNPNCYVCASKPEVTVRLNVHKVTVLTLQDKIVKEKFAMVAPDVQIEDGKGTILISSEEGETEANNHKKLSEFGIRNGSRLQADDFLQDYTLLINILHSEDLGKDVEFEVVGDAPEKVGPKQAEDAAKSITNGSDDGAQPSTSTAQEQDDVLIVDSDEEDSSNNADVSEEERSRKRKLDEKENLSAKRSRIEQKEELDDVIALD
T1 sequence (Q9UBE0 1-346 partner): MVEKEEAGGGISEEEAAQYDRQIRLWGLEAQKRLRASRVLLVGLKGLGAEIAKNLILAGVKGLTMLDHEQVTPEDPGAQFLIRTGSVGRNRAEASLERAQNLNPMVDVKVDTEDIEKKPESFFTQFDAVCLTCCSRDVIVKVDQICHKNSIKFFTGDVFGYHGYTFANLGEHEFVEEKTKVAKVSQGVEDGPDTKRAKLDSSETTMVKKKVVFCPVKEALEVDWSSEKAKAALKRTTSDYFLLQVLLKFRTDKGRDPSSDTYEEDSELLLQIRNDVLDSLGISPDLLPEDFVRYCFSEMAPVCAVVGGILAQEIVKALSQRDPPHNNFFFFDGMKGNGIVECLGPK
As to the kind of experiment: SAE HTRF Enzyme Assay. It is filed as biochemical. To be noted: for pIC50: class symbols A-C; for inhibition at 0.111 µM: compound concentration 0.111 μM, read-out: Percent Inhibition. The essentials:
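HTRF signal from Eu-anti-Flag/APC-anti-GST pairs reports Sumo-Flag loaded onto Ubc9-GST by 0.11 nM SAE. Reaction: 0.5 μM ATP, 0.125 μM Sumo-Flag, 0.01 μM Ubc9-GST, 5 mM MgCl2, pH 7.5, 105 min, 24° C. Single-concentration % inhibition or IC50 reported.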
A general note: Time-resolved FRET reads energy transfer from a long-lived donor to a nearby acceptor.

pIC50: −log10 of the molar value.

The pIC50 is −log10 of the IC50, conventionally taken in molar units. Usually inhibition stands for the relative decrease from the control value, in per cent. For `NS(=O)(=O)OC[C@H]1C[C@@H](Nc2ncncc2C(=O)c2ccn(Cc3ccc(C(F)(F)F)cc3)n2)[C@H](O)[C@@H]1O` [Compound I-167, [(1R,2R,3S,4R)-2,3-dihydroxy-4-{[5-({1-[4-(trifluoromethyl)benzyl]-1H-pyrazol-3-yl}carbonyl)pyrimidin-4-yl]amino}cyclopentyl]methyl sulfamate], the pIC50 is more than 8.00 and the inhibition at 0.111 µM is 98%.

With `CC#CCCn1ccc(C(=O)c2cncnc2N[C@@H]2C[C@H](COS(N)(=O)=O)[C@@H](O)C2)n1` [Compound I-115], the pIC50 was 6.00 to 7.00 and the inhibition at 0.111 µM came out at 33%.

For the molecule `NS(=O)(=O)OC[C@H]1C[C@@H](Nc2ncncc2C(=O)c2ccn(Cc3cc(Br)ccc3Cl)n2)C[C@@H]1O` [Compound I-239, {(1R,2S,4R)-4-[(5-{[1-(5-bromo-2-chlorobenzyl)-1H-pyrazol-3-yl]carbonyl}pyrimidin-4-yl)amino]-2-hydroxycyclopentyl}methyl sulfamate], the pIC50 is more than 8.00 and the inhibition at 0.111 µM stood at 99%.

For `NS(=O)(=O)OC[C@H]1C[C@@H](Nc2ncncc2C(=O)c2ccn(Cc3ccc(F)c(Cl)c3)n2)[C@H](O)[C@@H]1O` [Compound I-89, {(1R,2R,3S,4R)-4-[(5-{[1-(3-chloro-4-fluorobenzyl)-1H-pyrazol-3-yl]carbonyl}pyrimidin-4-yl)amino]-2,3-dihydroxycyclopentyl}methyl sulfamate], the pIC50 was more than 8.00 and the inhibition at 0.111 µM turned out to be 98%.

For `NS(=O)(=O)OC[C@H]1C[C@@H](Nc2ncncc2C(=O)c2ccn(Cc3ccc(F)c(I)c3)n2)[C@@H](F)[C@@H]1O` [Compound I-178, {(1R,2R,3R,4R)-3-fluoro-4-[(5-{[1-(4-fluoro-3-iodobenzyl)-1H-pyrazol-3-yl]carbonyl}pyrimidin-4-yl)amino]-2-hydroxycyclopentyl}methyl sulfamate], the pIC50 was more than 8.00 and the inhibition at 0.111 µM turned out to be 99%.

Consider `NS(=O)(=O)OC[C@H]1C[C@@H](Nc2ncncc2C(=O)c2ccn(Cc3ccccc3)c2)[C@H](O)[C@@H]1O` [Compound I-217, [(1R,2R,3S,4R)-4-({5-[(1-Benzyl-1H-pyrrol-3-yl)carbonyl]pyrimidin-4-yl}amino)-2,3-dihydroxycyclopentyl]methyl sulfamate], for which the pIC50 was more than 8.00 and the inhibition at 0.111 µM is 98%.

For `NS(=O)(=O)OC[C@H]1C[C@@H](Nc2ncncc2C(=O)c2ccn(Cc3cc(F)ccc3F)n2)[C@H](O)[C@@H]1O` [Compound I-91, {(1R,2R,3S,4R)-4-[(5-{[1-(2,5-difluorobenzyl)-1H-pyrazol-3-yl]carbonyl}pyrimidin-4-yl)amino]-2,3-dihydroxycyclopentyl}methyl sulfamate], the negative-log IC50 (pIC50) was more than 8.00 and the inhibition at 0.111 µM came to 98%.

Consider `NS(=O)(=O)OC[C@H]1C[C@@H](Nc2ncncc2C(=O)c2ccn(Cc3ccc(C(F)(F)F)s3)c2)[C@@H](F)[C@@H]1O` [Compound I-257, [(1R,2R,3R,4R)-3-fluoro-2-hydroxy-4-({5-[(1-{[5-(trifluoromethyl)-2-thienyl]methyl}-1H-pyrrol-3-yl)carbonyl]pyrimidin-4-yl}amino)cyclopentyl]methyl sulfamate], for which the pIC50 was more than 8.00 and the inhibition at 0.111 µM was 98%.

Take `Cc1ccnc(Cn2ccc(C(=O)c3cncnc3N[C@@H]3C[C@H](COS(N)(=O)=O)[C@@H](O)[C@H]3O)n2)c1` [Compound I-51, [(1R,2R,3S,4R)-2,3-dihydroxy-4-{[5-({1-[(4-methylpyridin-2-yl)methyl]-1H-pyrazol-3-yl}carbonyl)pyrimidin-4-yl]amino}cyclopentyl]methyl sulfamate]: the negative-log IC50 (pIC50) was more than 8.00 and the inhibition at 0.111 µM came out at 100%.

Take `NS(=O)(=O)OC[C@H]1C[C@@H](Nc2ncncc2C(=O)c2ccn(Cc3cncc(Br)c3)n2)C[C@@H]1O` [Compound I-29, [(1R,2S,4R)-4-{[5-({1-[(5-bromopridin-3-yl)methyl]-1H-pyrazol-3-yl}carbonyl)pyrimidin-4-yl]amino}-2-hydroxycyclopentyl]methyl sulfamate]: the pIC50 was 7.00 to 8.00 and the inhibition at 0.111 µM is 94%.

On to `Cc1cc(Cn2ccc(C(=O)c3cncnc3N[C@@H]3C[C@H](COS(N)(=O)=O)[C@@H](O)[C@@H]3F)c2)on1` [Compound I-208, [(1R,2R,3R,4R)-3-fluoro-2-hydroxy-4-{[5-({1-[(3-methylisoxazol-5-yl)methyl]-1H-pyrrol-3-yl}carbonyl)pyrimidin-4-yl]amino)cyolopentyl]methyl sulfomate], for which the negative logarithm of the IC50 (pIC50) is more than 8.00 and the inhibition at 0.111 µM amounted to 95%.

Take `NS(=O)(=O)OC[C@H]1C[C@@H](Nc2ncncc2C(=O)c2ccn(CCc3c[nH]c4ccccc34)n2)[C@H](O)[C@@H]1O` [Compound I-33, [(1R,2R,3S,4R)-2,3-dihydroxy-4-{[5-({1-[2-(1H-indol-3-yl)ethyl]-1H-pyrazol-3-yl}carbonyl)pyrimidin-4-yl]amino}cyclopentyl]methyl sulfamate]: the pIC50 was more than 8.00 and the inhibition at 0.111 µM was 98%.

Turning to `NS(=O)(=O)OC[C@H]1C[C@@H](Nc2ncncc2C(=O)c2ccn(CC3=CCOCC3)c2)[C@@H](F)[C@@H]1O` [Compound I-5, {(1R,2R,3R,4R)-4-[(5-{[1-(3,6-dihydro-2H-pyran-4-ylmethyl)-1H-pyrrol-3-yl]carbonyl}pyrimidin-4-yl)amino]-3-fluoro-2-hydroxycyclopentyl}methyl sulfamate], the pIC50 is 7.00 to 8.00 and the inhibition at 0.111 µM amounted to 89%.

Regarding `NS(=O)(=O)OC[C@H]1C[C@@H](Nc2ncncc2C(=O)c2ccn(Cc3cc(F)cc(F)c3)n2)[C@H](O)[C@@H]1O` [Compound I-269, {(1R,2R,3S,4R)-4-[(5-{[1-(3,5-difluorobenzyl)-1H-pyrazol-3-yl]carbonyl}pyrimidin-4-yl)amino]-2,3-dihydroxycyclopentyl}methyl sulfamate], the pIC50 was more than 8.00 and the inhibition at 0.111 µM stood at 96%.

As for `NS(=O)(=O)OC[C@@H]1C[C@@H](Nc2ncncc2C(=O)c2ccn(Cc3cccc(Br)c3)c2)C[C@@H]1O` [Compound I-319, {(1S,2S,4R)-4-[(5-{[1-(3-Bromobenzyl)-1H-pyrrol-3-yl]carbonyl}pyrimidin-4-yl)amino]-2-hydroxycyclopentyl}methyl sulfamate], the pIC50 was more than 8.00 and the inhibition at 0.111 µM came out at 99%.

As for `NS(=O)(=O)OC[C@H]1C[C@@H](Nc2ncncc2C(=O)c2ccn(Cc3cccc(Cl)c3)n2)[C@@H](F)[C@@H]1O` [Compound I-176, {(1R,2R,3R,4R)-4-[(5-{[1-(3-chlorobenzyl)-1H-pyrazol-3-yl]carbonyl}pyrimidin-4-yl)amino]-3-fluoro-2-hydroxycyclopentyl}methyl sulfamate], the pIC50 was more than 8.00 and the inhibition at 0.111 µM was 98%.

For the molecule `CCOCCn1ccc(C(=O)c2cncnc2N[C@@H]2C[C@H](COS(N)(=O)=O)[C@@H](O)[C@H]2O)n1` [Compound I-28, {(1R,2R,3S,4R)-4-[(5-{[1-(2-ethoxyethyl)-1H-pyrazol-3-yl]carbonyl}pyrimidin-4-yl)amino]-2,3-dihydroxycyclopentyl}methyl sulfamate], the pIC50 is 7.00 to 8.00 and the inhibition at 0.111 µM was determined as 78%.

With `NS(=O)(=O)OC[C@H]1C[C@@H](Nc2ncncc2C(=O)c2ccn(Cc3ccccc3Cl)n2)C[C@@H]1O` [Compound I-206, {(1R,2S,4R)-4-[(5-{[1-(2-chlorobenzyl)-1H-pyrazol-3-yl]carbonyl}pyrimidin-4-yl)amino]-2-hydroxycyclopentyl}methyl sulfamate], the pIC50 was more than 8.00 and the inhibition at 0.111 µM turned out to be 96%.

`CC(c1cccc(Br)n1)n1ccc(C(=O)c2cncnc2N[C@@H]2C[C@H](COS(N)(=O)=O)[C@@H](O)C2)n1` (single isomer, unassigned) [Compound I-366, [(1R,2S,4R)-4-{[5-({1-[(1S)-1-(6-bromopyridin-2-yl)ethyl]-1H-pyrazol-3-yl}carbonyl)pyrimidin-4-yl]amino}-2-hydroxycyclopentyl]methyl sulfamate or [(1R,2S,4R)-4-{[5-({1-[(1R)-1-(6-bromopyridin-2-yl)ethyl]-1H-pyrazol-3-yl}carbonyl)pyrimidin-4-yl]amino}-2-hydroxycyclopentyl]methyl sulfamate]: the pIC50 is 7.00 to 8.00 and the inhibition at 0.111 µM turned out to be 92%.

The record behind these values is patent publication US9695154B2, “Heteroaryl inhibitors of sumo activating enzyme” (MILLENNIUM PHARMACEUTICALS, INC., priority 2013, dated 2017).
